In patent US20230330093A1, “APPLICATION OF NITROGEN-CONTAINING SATURATED HETEROCYCLIC COMPOUND” (SHANGHAI PHARMACEUTICALS HOLDING CO., LTD., priority 2020, published 2023):

Key:
[1] = tested on: cynomolgus monkeys; experiment: 4-week repeated-dose safety study: clinical observations, mortality, body weight; format: in vivo; settings: for body weight gain: no statistical significance
Description: The compound of Formula I was prepared and confirmed according to the method in CN103562191B. The 0.5% of sodium carboxymethyl cellulose (CMC-Na) was used as a vehicle. The compound of Formula I was stored at room temperature, protected from light and wetness. For cynomolgus monkey safety studies, the test substance was suspended in 0.5% CMC-Na at the relevant concentrations. The homogeneity, concentration and one week stability of prepared suspension was analyzed to ensure proper administration of the reported doses. The six month accelerated stability of active pharmaceutical ingredient (API) was tested by the inventor.
Healthy male and female cynomolgus monkeys aged 3-4 years were supplied by Hainan New Source Biotech Co. Ltd. (Hainan, China). The body weight range at the start of treatment was 3.2-5.8 kg for male and 2.5-3.7 kg for female. They were housed for a 36-day acclimation period before study. Once a day in the morning, animals eat and drink freely.
Mortality and clinical signs were evaluated daily from the beginning of the quarantine period. Each animal was examined at least twice daily for any change in behavior, reaction to treatment or illness after administration.
Observations included, but were not limited to the following: changes in skin and fur; eyes and mucous membranes; respiratory, circulatory, autonomic, central nervous systems and behavior patterns. Rectal temperature was measured before administration (twice), at 1 and 24 h after first administration, and before d26 administration and at 1 and 24 h after d26 administration. Body weight was measured every week. Food consumption was estimated for monkey every day. Ophthalmoscopy was conducted for the monkey study using a portable slit lamp (YZ2) and a direct ophthalmoscope (GFJY-01B).

[2] = tested on: cynomolgus monkeys; experiment: 4-week safety study: necropsy, gross pathology and organ weights; settings: Female;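 further: daily nasogastric dosing for 28 days, organs weighed at necropsy on day 28 or after a 28-day drug-free recovery (day 56), relative weights expressed as percent of body or brain weight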
Description: Cynomolgus monkeys (5/sex/group) were selected using a computerized randomization procedure based on body weight, and the compound of Formula I was administered to the cynomolgus monkeys by nasogastric feeding at dose levels of 0 (control), 20, 100, 450 mg/kg/day in a volume of 5 ml/kg. Individual dose volumes were adjusted weekly based on body weight of animals. For all the groups, 2/3 of the animals were randomly selected and euthanized on day 28. The remaining animals were euthanized after 28-day drug free period.
A complete gross necropsy was conducted on all animals by visual inspection at the end of the exposure period (day 28) and the recovery phase (day 56). The following selected organs were trimmed, weighed and evaluated in terms of absolute weight and as a percentage of final body weight or brain weight: brain, heart, kidney, liver, spleen, thymus, testes, epididymides, uterus, ovaries, adrenals and thyroid (including the parathyroid). The following tissues were preserved in 10% neutral buffered formalin: brain, pituitary gland, thyroid (including the parathyroid), trachea, heart, pancreas, spleen, adrenal glands, prostate, ovaries, uterus (including cervix uteri and oviduct), vagina, testes, epididymides, seminal vesicle, esophagus, duodenum, jejunum, ileum, cecum, colon, rectum, mesenteric lymph nodes, Peyer's patches, submaxillary lymph nodes, aorta, eyes, skeletal muscle, sciatic nerve, femur (including metaphysis), mammary gland, sternum, salivary glands, spinal cord, urinary bladder, lung (including the bronchi), liver, kidneys, stomach, bone marrow (sternal), thymus, sternum, gallbladder, any gross lesions or masses. The lung tissue was inflated with fixative at the time of necropsy. All the preserved tissues were paraffin embedded, sectioned, stained with hematoxylin and eosin (HE) and examined microscopically. Bone marrow cellular morphology examination was conducted with both smear (sternum) and paraffin-embedded sternum section.
For each sex, body weight, rectal temperature, ECG, organ weight, hematological parameters and serum biochemical data were analyzed with a statistical software SAS 9.3. Firstly homogeneity of variance was analyzed using Levene's test. If P>0.05, the one-way ANOVA analysis was employed. If P<0.05, the Kruskal-Wallis test was used. If the resulting ANOVA p-value was <0.05, a comparison of each group using the Dunnett T test was performed. If the resulting Kruskal-Wallis test p-value was <0.05, then the Dunnett T test was performed after data rank conversion.

COC(=O)NCCCn1nc([C@@H](C)N(C(=O)[C@H]2CNCCO2)C2CC2)c2ccc(C)nc21 [compound of Formula I]
clinical signs of toxicity related to treatment in other animals ([1]; 20, 100, 450 mg/kg/day for 4 weeks): no apparent clinical signs of toxicity | body weight gain ([1]; high dose (450 mg/kg/day) females, controls 3.2±0.2): 2.7±0.4 | body weight gain ([1]; high dose (450 mg/kg/day) males, controls 4.6±0.5): 4.1±0.5 | mortality ([1]; high dose (450 mg/kg/day), nasogastric, day23): Treatment related early death occurred in one high dose female | Liver Absolute weight ([2]; 20 mg/kg, d 28): 58.37 ± 7.38 g | Liver Relative weight (/body weight) ([2]; 20 mg/kg, d 28): 2.06 ± 0.22 | Liver Relative weight (/brain weight) ([2]; 20 mg/kg, d 28): 90.10 ± 7.72 | Thymus Absolute weight ([2]; 20 mg/kg, d 28): 1.23 ± 0.40 g | Thymus Relative weight (/body weight) ([2]; 20 mg/kg, d 28): 0.04 ± 0.01 | Thymus Relative weight (/brain weight) ([2]; 20 mg/kg, d 28): 1.87 ± 0.46 | Uterus Absolute weight ([2]; 20 mg/kg, d 28): 5.97 ± 1.20 g | Uterus Relative weight (/body weight) ([2]; 20 mg/kg, d 28): 0.21 ± 0.04 | Uterus Relative weight (/brain weight) ([2]; 20 mg/kg, d 28): 9.19 ± 1.57 | kidney Absolute weight ([2]; 20 mg/kg, d 28): 12.20 ± 2.23 g | kidney Relative weight (/body weight) ([2]; 20 mg/kg, d 28): 0.43 ± 0.07 | kidney Relative weight (/brain weight) ([2]; 20 mg/kg, d 28): 18.73 ± 1.74 | Liver Absolute weight ([2]; 20 mg/kg, d 56): 68.35 ± 3.32 g | Liver Relative weight (/body weight) ([2]; 20 mg/kg, d 56): 2.01 ± 0.07 | Liver Relative weight (/brain weight) ([2]; 20 mg/kg, d 56): 104.00 ± 10.62 | Thymus Absolute weight ([2]; 20 mg/kg, d 56): 2.00 ± 0.71 g | Thymus Relative weight (/body weight) ([2]; 20 mg/kg, d 56): 0.06 ± 0.02 | Thymus Relative weight (/brain weight) ([2]; 20 mg/kg, d 56): 3.07 ± 1.24 | Uterus Absolute weight ([2]; 20 mg/kg, d 56): 11.30 ± 3.25 g | Uterus Relative weight (/body weight) ([2]; 20 mg/kg, d 56): 0.33 ± 0.07 | Uterus Relative weight (/brain weight) ([2]; 20 mg/kg, d 56): 17.30 ± 5.86 | kidney Absolute weight ([2]; 20 mg/kg, d 56): 13.75 ± 0.78 g | kidney Relative weight (/body weight) ([2]; 20 mg/kg, d 56): 0.41 ± 0.06 | kidney Relative weight (/brain weight) ([2]; 20 mg/kg, d 56): 20.86 ± 0.06 | Liver Absolute weight ([2]; 100 mg/kg, d 28): 57.60 ± 4.25 g | Liver Relative weight (/body weight) ([2]; 100 mg/kg, d 28): 1.96 ± 0.13 | Liver Relative weight (/brain weight) ([2]; 100 mg/kg, d 28): 96.55 ± 7.51 | Thymus Absolute weight ([2]; 100 mg/kg, d 28): 0.73 ± 0.50 g | Thymus Relative weight (/body weight) ([2]; 100 mg/kg, d 28): 0.02 ± 0.02 | Thymus Relative weight (/brain weight) ([2]; 100 mg/kg, d 28): 1.18 ± 0.73 | Uterus Absolute weight ([2]; 100 mg/kg, d 28): 7.03 ± 0.94 g | Uterus Relative weight (/body weight) ([2]; 100 mg/kg, d 28): 0.24 ± 0.03 | Uterus Relative weight (/brain weight) ([2]; 100 mg/kg, d 28): 11.84 ± 2.02 | kidney Absolute weight ([2]; 100 mg/kg, d 28): 11.67 ± 0.71 g | kidney Relative weight (/body weight) ([2]; 100 mg/kg, d 28): 0.40 ± 0.02 | kidney Relative weight (/brain weight) ([2]; 100 mg/kg, d 28): 19.61 ± 1.86 | Liver Absolute weight ([2]; 100 mg/kg, d 56): 68.45 ± 20.01 g | Liver Relative weight (/body weight) ([2]; 100 mg/kg, d 56): 1.86 ± 0.37 | Liver Relative weight (/brain weight) ([2]; 100 mg/kg, d 56): 104.90 ± 37.06 | Thymus Absolute weight ([2]; 100 mg/kg, d 56): 2.35 ± 0.49 g | Thymus Relative weight (/body weight) ([2]; 100 mg/kg, d 56): 0.07 ± 0.02 | Thymus Relative weight (/brain weight) ([2]; 100 mg/kg, d 56): 3.54 ± 0.52 | Uterus Absolute weight ([2]; 100 mg/kg, d 56): 8.30 ± 3.39 g | Uterus Relative weight (/body weight) ([2]; 100 mg/kg, d 56): 0.23 ± 0.12 | Uterus Relative weight (/brain weight) ([2]; 100 mg/kg, d 56): 12.44 ± 4.34 | kidney Absolute weight ([2]; 100 mg/kg, d 56): 14.15 ± 2.33 g | kidney Relative weight (/body weight) ([2]; 100 mg/kg, d 56): 0.39 ± 0.03 | kidney Relative weight (/brain weight) ([2]; 100 mg/kg, d 56): 21.60 ± 4.92 | Liver Absolute weight ([2]; 450 mg/kg, d 28): 69.40 ± 3.68 g | Liver Relative weight (/body weight) ([2]; 450 mg/kg, d 28): 2.78 ± 0.31 | Liver Relative weight (/brain weight) ([2]; 450 mg/kg, d 28): 112.03 ± 12.42 | Thymus Absolute weight ([2]; 450 mg/kg, d 28): 0.50 ± 0.14 g | Thymus Relative weight (/body weight) ([2]; 450 mg/kg, d 28): 0.02 ± 0.01 | Thymus Relative weight (/brain weight) ([2]; 450 mg/kg, d 28): 0.81 ± 0.27 | Uterus Absolute weight ([2]; 450 mg/kg, d 28): 3.50 ± 0.14 g | Uterus Relative weight (/body weight) ([2]; 450 mg/kg, d 28): 0.14 ± 0.01 | Uterus Relative weight (/brain weight) ([2]; 450 mg/kg, d 28): 5.63 ± 0.10 | kidney Absolute weight ([2]; 450 mg/kg, d 28): 12.95 ± 0.07 g | kidney Relative weight (/body weight) ([2]; 450 mg/kg, d 28): 0.52 ± 0.03 | kidney Relative weight (/brain weight) ([2]; 450 mg/kg, d 28): 20.87 ± 1.10 | Liver Absolute weight ([2]; 450 mg/kg, d 56): 72.40 ± 11.74 g | Liver Relative weight (/body weight) ([2]; 450 mg/kg, d 56): 2.04 ± 0.05 | Liver Relative weight (/brain weight) ([2]; 450 mg/kg, d 56): 109.03 ± 13.64
